{"source": "patent EP2963022A1", "about": "“FUSED HETEROCYCLIC COMPOUND AND PEST CONTROL APPLICATIONS THEREOF” (priority 2013, dated 2014)", "type_in_all_cases": "in vivo", "key": {"Plutella xylostella": {"tested_on": "Plutella xylostella", "test": "Test Example 6: spray test on cabbage against Plutella xylostella larvae", "settings": "120 h, sprayed 20 mL/cup on cabbage, second instar larvae, 5 days at 25°C, read-out: Death rate", "procedure": "On the other hand, on cabbage at the third leaf stage planted in a polyethylene cup was sprayed, at a rate 20 mL/cup, the test drug solution. After the drug solution was dried, the foliage part was cut off, and then placed in a 50 mL volume cup. Five second instar larvae of Plutella xylostella were released into the cup, and the cup was sealed with a lid. After the cup was kept at 25°C for 5 days, the number of dead insects was counted. The death rate was calculated according to the following equation. Death rate (%) = (Number of deads insects/Number of tested insects) × 100 [formula]"}, "[1]": {"tested_on": "Adoxophyes orana fasciata", "test": "Test Example 7: spray test on apple tree against Adoxophyes orana fasciata larvae", "settings": "in Malus domestica, 168 h, read-out: Death rate", "procedure": "The formulations of Compounds of Present Invention 1-2 and 1-3 as obtained in Formulation Example 5 were diluted with water, so as to have a concentration of the active ingredient of 500 ppm, to prepare a test spray solution.\nOn the other hand, an apple tree was planted in a plastic cup, and grown until the seventh-eighth true leaf was spread. To the apple tree was sprayed, at a rate of 20 mL/cup, the test drug solution. After the drug solution was dried, 60 first-instar larvae of Adoxophyes orana fasciata were released, and covered with a plastic cup the bottom of which was cut off and on which a filter paper was put, with the plastic cup cover placed upside-down. After 7 days, the number of dead insects was counted, and the death rate was calculated according to the following equation. Death rate (%) = (Number of deads insects/Number of tested insects) × 100 [formula]"}, "Musca domestica": {"tested_on": "Musca domestica", "test": "Test Example 8: filter paper and sucrose bait test against Musca domestica", "settings": "24 h, read-out: Death rate", "procedure": "The formulation of Compound of Present Invention 1-2 as obtained in Formulation Example 5 was diluted with water, so as to have a concentration of the active ingredient of 500 ppm, to prepare a test drug solution.\nA filter paper having a diameter of 5.5 cm was spread on the bottom of a polyethylene cup having the same diameter and 0.7 ml of the test drug solution was added dropwise onto the filter paper, and 30 mg of sucrose was uniformly placed as bait. Into the polyethylene cup, 10 female imagoes of Musca domestica were released, and the cup was sealed with a lid. After 24 hours, the life and death of Musca domestica was examined, the number of dead insects was counted, and the death rate was calculated according to the following equation. Death rate (%) = (Number of deads insects/Number of tested insects) × 100 [formula]"}, "Culex pipiens pallens": {"tested_on": "Culex pipiens pallens", "test": "Test Example 10: larvicidal test in water against Culex pipiens pallens", "settings": "24 h, active ingredient concentration 3.5 ppm in ion-exchanged water, last-instar larvae, one day later, read-out: Death rate", "procedure": "The formulations of Compounds of Present Invention 1-2, 1-3 and 1-8 as obtained in Formulation Example 5 were diluted with water, so as to have a concentration of the active ingredient of 500 ppm, to prepare a test drug solution.\n0.7 ml of the test drug solution was added to 100 ml of ion-exchanged water (active ingredient concentration: 3.5 ppm). 20 last-instar larvae of Culex pipiens pallens were released into the solution. One day later, the life and death of the Culex pipiens pallens was examined, and the number of dead insects was counted to calculate the death rate. Death rate (%) = (Number of deads insects/Number of tested insects) × 100 [formula]"}, "[2]": {"tested_on": "Haemaphysalis longicornis", "test": "Test Example 11: coated screw tube contact test against Haemaphysalis longicornis ticks", "settings": "48 h, 2 mg in 0.2 mL acetone coated on inner wall of screw tube, unfed nymphal ticks, after 2 days, read-out: Death rate", "procedure": "Compound of Present Invention 1-24 (2 mg) was weighed in a screw tube (Maruemu No. 5; 27 x 55 mm), and 0.2 mL of acetone was added thereto, and the screw tube was sealed with a cap to dissolve the compound. The screw tube was rotated and inverted to uniformly coat the drug solution onto the whole inner wall of the tube. After removing the cap, the solution was air-dried for about 2 hours, then unfed nymphal ticks, Haemaphysalis longicornis (5 ticks/group) were released, and the tube was sealed with the cap. After 2 days, the number of dead insects was counted, and the death rate was calculated according to the following equation. Death rate (%) = 100 × (Number of deads insects/Number of tested insects) [formula]"}}}
{"smiles": "CCS(=O)(=O)c1cc(C(=O)OC)ccc1-c1nc2cc(C(F)(F)F)cnc2n1C", "note": "[1-2]", "values": [{"measurement": "mortality at 500 ppm", "setting": "Plutella xylostella", "result": "≥ 80", "unit": "%"}, {"measurement": "mortality at 500 ppm", "setting": "[1]", "result": "≥ 90", "unit": "%"}, {"measurement": "mortality at 500 ppm", "setting": "Musca domestica", "result": 100, "unit": "%"}, {"measurement": "mortality at 3.5 ppm", "setting": "Culex pipiens pallens", "result": "≥ 95", "unit": "%"}]}
{"smiles": "CCOC(=O)c1ccc(-c2nc3cc(C(F)(F)F)cnc3n2C)c(S(=O)(=O)CC)c1", "note": "[1-3]", "values": [{"measurement": "mortality at 500 ppm", "setting": "Plutella xylostella", "result": "≥ 80", "unit": "%"}, {"measurement": "mortality at 500 ppm", "setting": "[1]", "result": "≥ 90", "unit": "%"}, {"measurement": "mortality at 3.5 ppm", "setting": "Culex pipiens pallens", "result": "≥ 95", "unit": "%"}]}
{"smiles": "CCOC(=O)c1ccc(-c2nc3cc(C(F)(F)F)ccc3n2C)c(S(=O)(=O)CC)c1", "note": "[1-8]", "values": [{"measurement": "mortality at 3.5 ppm", "setting": "Culex pipiens pallens", "result": "≥ 95", "unit": "%"}]}
{"smiles": "CCOC(=O)c1ccc(-c2nc3cc(C(F)(F)F)ccc3s2)c(S(=O)(=O)CC)c1", "note": "[1-24]", "values": [{"measurement": "mortality at 2 mg/tube", "setting": "[2]", "result": 100, "unit": "%"}]}
